Columns and labels:
CCK-B receptor = target: T1, CCK-B receptor (Rattus norvegicus, UniProt P30553); experiment: CCK-B receptor binding test (brain); conditions: for Ki: rat cerebral cortex membranes, 125I-CCK-8, 20°C, 30 minutes, read-out: binding affinity (Ki,nM) CCK-B; for selectivity (A/B): ratio CCK-A / CCK-B binding affinity
T1 construct: cerebral cortex from rat was prepared and suspended in a buffer; from tissue; host or cells: rat cerebral cortex membrane suspension
T1 sequence (P30553 1-452): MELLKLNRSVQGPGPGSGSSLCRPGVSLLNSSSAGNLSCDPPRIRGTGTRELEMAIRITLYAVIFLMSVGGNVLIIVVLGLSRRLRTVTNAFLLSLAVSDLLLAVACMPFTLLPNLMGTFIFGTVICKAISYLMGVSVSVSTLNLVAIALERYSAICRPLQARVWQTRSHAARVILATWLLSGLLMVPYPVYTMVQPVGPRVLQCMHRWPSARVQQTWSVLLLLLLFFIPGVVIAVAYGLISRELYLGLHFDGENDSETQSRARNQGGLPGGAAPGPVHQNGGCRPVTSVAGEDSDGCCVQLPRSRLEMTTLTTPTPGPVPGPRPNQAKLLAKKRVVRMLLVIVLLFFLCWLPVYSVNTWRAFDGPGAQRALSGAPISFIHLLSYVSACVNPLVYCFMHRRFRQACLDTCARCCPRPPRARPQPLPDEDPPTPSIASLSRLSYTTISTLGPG
Experimental: Experimental Example 2 : CCK-B receptor binding test (brain)
In the case of the central nervous system, cerebral cortex from rat was prepared and suspended in a buffer, pH 6.5, containing 5 mM magnesium chloride, 1 mM EGTA [ethylene glycol bis(2-aminoethylether)tetraacetic acid], 360 mM sodium chloride, 15 mM potassium chloride, 20 mM HEPES (N-2-hydroxyethylpiperazine-N'-2-ethanesulfonic acid) and 0.25 mg/ml bacitracin. For binding assay, 50 µl of a buffer (for total binding), unlabeled CCK-8 sulfate (for nonspecific binding) having a final concentration of 1 µM or a test compound (for determining inhibition of ¹²⁵I-CCK binding) and 50 µl of ¹²⁵I-CCK-8 (63-67 TBq/mmol, 40,000 - 50,000 cpm) were added to a membrane suspension (450 µl, containing 100 µg protein). The reaction mixture was incubated at 20°C for 30 minutes, filtered by suction through a glass fiber filter (Whatman GF/B), and immediately thereafter washed 3 times with ice-cooled Tris buffer (2.5 ml). The radioactive concentration on the filter was measured.
(§1) Inhibition (%) = 100 -((binding when compound added - nonspecific binding))/((total binding - nonspecific binding))× 100 [formula]

CCK-A receptor = target: T2, CCK-A receptor (Rattus norvegicus, UniProt P30551); experiment: CCK-A receptor binding test (pancreas); conditions: for Ki: rat pancreas membranes, 125I-CCK-8, 20°C, 30 minutes, read-out: binding affinity (Ki,nM) CCK-A; for affinity for CCK-A receptor (in words): summary of the binding results in the text
T2 construct: The whole pancreas was removed from a male rat; from tissue; host or cells: rat pancreas membrane homogenate
T2 sequence (P30551 1-444): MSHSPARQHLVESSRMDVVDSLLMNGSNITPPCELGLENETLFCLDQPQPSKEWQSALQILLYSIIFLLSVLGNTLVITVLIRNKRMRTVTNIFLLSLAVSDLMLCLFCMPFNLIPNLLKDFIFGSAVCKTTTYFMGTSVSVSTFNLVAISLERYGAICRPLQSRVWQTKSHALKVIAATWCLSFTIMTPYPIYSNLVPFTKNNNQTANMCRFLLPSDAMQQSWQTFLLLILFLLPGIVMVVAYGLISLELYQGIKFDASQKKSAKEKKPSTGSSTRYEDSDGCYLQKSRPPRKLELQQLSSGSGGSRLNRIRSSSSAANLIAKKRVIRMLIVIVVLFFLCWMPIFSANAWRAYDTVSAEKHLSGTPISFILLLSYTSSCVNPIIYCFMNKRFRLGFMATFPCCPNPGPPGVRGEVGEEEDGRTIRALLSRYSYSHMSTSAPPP
Experimental: Experimental Example 1 : CCK-A receptor binding test (pancreas)
The whole pancreas was removed from a male rat. The fat tissues were removed and the pancreas was homogenized (Brinkman Polytron PT20) in 50 mM Tris hydrochloric acid (pH 7.5). The homogenate was filtered through a nylon cloth (120 mesh) and centrifuged at 50,000 × g for 12 minutes. The obtained sediment was homogenized in Tris buffer as in the above and centrifuged. The sediment was suspended in a buffer for binding assay [50 mM Tris-HCl (pH 7.2) containing 5 mM magnesium chloride, 5 mM dithiothreitol, 2 mg/ml bovine serum albumin, 0.1 mg/ml bacitracin and 0.14 mg/ml trypsin inhibitor (soybean)] and used as a receptor source.
For binding assay, 50 µl of a buffer (for total binding), unlabeled CCK-8 sulfate (for nonspecific binding) having a final concentration of […] or a test compound (for determining inhibition of ¹²⁵I-CCK binding) and 50 µl of ¹²⁵I-CCK-8 (63-67 TBq/mmol, 40,000-50,000 cpm) were added to a membrane suspension (450 µl, containing 100 µg protein). The reaction mixture was incubated at 20°C for 30 minutes, filtered by suction through a glass fiber filter (Whatman GF/B), and immediately thereafter washed 3 times with ice-cooled Tris buffer (2.5 ml). The radioactive concentration on the filter was measured.
as §1

Row | Structure (SMILES) | Ki (CCK-B receptor) [nM] | selectivity (A/B) (CCK-B receptor) | Ki (CCK-A receptor) [nM] | affinity for CCK-A receptor (in words) (CCK-A receptor)
1 | CCOC(=O)CN1C(=O)C(NC(=O)Nc2cccc(OC)c2)C=C(c2ccccc2)c2ccccc21 (single isomer, unassigned; (-)) [Example 52, (-)-1-(1-ethoxycarbonylmethyl-2-oxo-5-phenyl-2,3-dihydro-1H-1-benzazepin-3-yl)-3-(3-methoxyphenyl)urea] | 0.92 | 120 | 110 | –
2 | Cc1ccccc1C(=O)CN1C(=O)C(NC(=O)Nc2ccccc2Cl)C=C(c2ccccc2)c2ccccc21 (single isomer, unassigned; (-)) [Example 74, (-)-1-(2-chlorophenyl)-3-(1-(2'-methylphenacyl)-2-oxo-5-phenyl-2,3-dihydro-1H-1-benzazepin-3-yl)urea] | 2.4 | 120 | 290 | –
3 | Cc1cccc(NC(=O)N[C@@H]2N=C(c3ccccc3)c3ccccc3N(C)C2=O)c1 [Example L-365260, (R)-N-(2,3-dihydro-1-methyl-2-oxo-5-phenyl-1H-1,4-benzodiazepin-3-yl)-N'-(3-methylphenyl)urea, reference compound] | 19 | 21 | 390 | –
4 | Cc1ccc(NC(=O)NC2C=C(c3ccccc3)c3ccccc3N(CC(=O)c3ccccc3C)C2=O)cc1 (single isomer, unassigned; (-)) [Example 64, (-)-1-(1-(2'-methylphenacyl)-2-oxo-5-phenyl-2,3-dihydro-1H-1-benzazepin-3-yl)-3-(4-methylphenyl)urea] | 1.1 | 180 | 200 | –
5 | CCOC(=O)CN1C(=O)C(NC(=O)Nc2ccc(C)cc2)C=C(c2ccccc2)c2ccccc21 (single isomer, unassigned; (-)) [Example 48, (-)-1-(1-ethoxycarbonylmethyl-2-oxo-5-phenyl-2,3-dihydro-1H-1-benzazepin-3-yl)-3-(4-methylphenyl)urea] | 2.1 | 100 | 210 | –
6 | CN1C(=O)C(NC(=O)c2cc3ccccc3[nH]2)C=C(c2ccccc2)c2ccccc21 (single isomer, unassigned; (+)) [Example 36, (+)-N-(1-methyl-2-oxo-5-phenyl-2,3-dihydro-1H-1-benzazepin-3-yl)-2-indolecarboxamide] | > 1000 | <0.0047 | 4.7 | strong, selective affinity for CCK-A receptor
7 | CCOC(=O)CN1C(=O)C(NC(=O)Nc2cccc(C)c2)C=C(c2ccccc2)c2ccccc21 (single isomer, unassigned; (-)) [Example 46, (-)-1-(1-ethoxycarbonylmethyl-2-oxo-5-phenyl-2,3-dihydro-1H-1-benzazepin-3-yl)-3-(3-methylphenyl)urea] | 0.87 | 110 | 100 | –
8 | Cc1ccccc1NC(=O)NC1C=C(c2ccccc2)c2ccccc2N(CC(=O)c2ccccc2C)C1=O (single isomer, unassigned; (-)) [Example 66, (-)-1-(1-(2'-methylphenacyl)-2-oxo-5-phenyl-2,3-dihydro-1H-1-benzazepin-3-yl)-3-(2-methylphenyl)urea] | 2.5 | 124 | 310 | –
9 | COc1ccc(NC(=O)NC2C=C(c3ccccc3)c3ccccc3N(CC(=O)c3ccccc3C)C2=O)cc1 (single isomer, unassigned; (-)) [Example 68, (-)-1-(4-methoxyphenyl)-3-(1-(2'-methylphenacyl)-2-oxo-5-phenyl-2,3-dihydro-1H-1-benzazepin-3-yl)urea] | 1.1 | 140 | 150 | –
10 | Cc1ccccc1C(=O)CN1C(=O)C(NC(=O)c2cc3ccccc3[nH]2)C=C(c2ccccc2)c2ccccc21 (single isomer, unassigned; (+)) [Example 81, (+)-N-(1-(2'-methylphenacyl)-2-oxo-5-phenyl-2,3-dihydro-1H-1-benzazepin-3-yl)-2-indole carboxamide] | > 1000 | <0.042 | 42 | strong, selective affinity for CCK-A receptor

Source: patent publication EP0703222A1, “3-AMINOAZEPINE COMPOUND AND PHARMACEUTICAL USE THEREOF” (YOSHITOMI PHARMACEUTICAL INDUSTRIES, LTD., priority 1993, dated 1994)
